Results as given in patent publication US20100298141A1, “SUBSTITUTED PYRIDINE N-OXIDE HERBICIDES” (E. I. DU PONT DE NEMOURS AND COMPANY, priority 2007, published 2010).

Assays:
johnsongrass = assay: Test C pre-/postemergence test; assay type: in vivo, Sorghum halepense; settings: for Plant response rating, Johnsongrass: scale 0 to 100, 0 no effect, 100 complete control
Outline: (§1)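 Seeds were planted and treated preemergence with test chemical in a non-phytotoxic solvent mixture containing surfactant. Postemergence applications of the same formulation went onto plants 2 to 18 cm tall (1- to 4-leaf stage). A dash marks no test result.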

Surinam grass = assay: Test C pre-/postemergence test; assay type: in vivo, Brachiaria decumbens; settings: for Surinam Grass plant response rating: preemergence, scale 0 (no effect) to 100 (complete control); for Plant response rating, Surinam Grass: scale 0 to 100, 0 no effect, 100 complete control
Outline: as §1

redroot pigweed = assay: Test A pre-/postemergence greenhouse test; assay type: in vivo, Amaranthus retroflexus; settings: for Pigweed plant response rating: 0 to 100 scale
Outline: (§2)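 Each test compound, dissolved in a non-phytotoxic solvent mixture with surfactant, was sprayed directly onto seeded soil (loam/sand blend) and, at the same moment, onto seedlings carrying one to two leaves. Around ten greenhouse days later, plants were rated visually for injury relative to untreated controls.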

lambsquarters = assay: Test C pre-/postemergence test; assay type: in vivo, Chenopodium album; settings: for Plant response rating, Lambsquarters: scale 0 to 100, 0 no effect, 100 complete control
Outline: as §1

wild oat = assay: Test C pre-/postemergence test; assay type: in vivo, Avena fatua; settings: for Plant response rating, Oat, Wild: scale 0 to 100, 0 no effect, 100 complete control
Outline: as §1

rice = assay: Test C flooded paddy test; assay type: in vivo, Oryza sativa; settings: Flood
Outline: (§3)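 Under a constant 3 cm flood, test compounds went directly into the paddy water. Following 13 to 15 days of greenhouse growth, treated species and controls were compared by eye.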

bermudagrass = assay: Test C pre-/postemergence test; assay type: in vivo, Cynodon dactylon; settings: for Plant response rating, Bermudagrass: scale 0 to 100, 0 no effect, 100 complete control
Outline: as §1

eastern black nightshade = assay: Test C pre-/postemergence test; assay type: in vivo, Solanum ptycanthum
Outline: as §1

barnyardgrass = assay: Test C flooded paddy test; assay type: in vivo, Echinochloa crus-galli; settings: Flood
Outline: as §3

corn = assay: Test A pre-/postemergence greenhouse test; assay type: in vivo, Zea mays; settings: for Corn plant response rating: 0 to 100 scale
Outline: as §2

wheat = assay: Test A pre-/postemergence greenhouse test; assay type: in vivo, Triticum aestivum; settings: for Wheat plant response rating: 0 to 100 scale
Outline: as §2

giant foxtail [1] = assay: Test A pre-/postemergence greenhouse test; assay type: in vivo, Setaria faberi; settings: for Foxtail, Giant plant response rating: 0 to 100 scale
Outline: as §2

common ragweed = assay: Test C pre-/postemergence test; assay type: in vivo, Ambrosia elation; settings: for Plant response rating, Ragweed: scale 0 to 100, 0 no effect, 100 complete control
Outline: as §1

giant foxtail [2] = assay: Test C pre-/postemergence test; assay type: in vivo, Setaria faberii; settings: for Plant response rating, Foxtail, Giant: scale 0 to 100, 0 no effect, 100 complete control
Outline: as §1

Goosegrass = assay: Test C pre-/postemergence test; assay type: in vivo, Eleusin indica; settings: for Plant response rating, Goosegrass: scale 0 to 100, 0 no effect, 100 complete control
Outline: as §1

velvetleaf [3] = assay: Test C pre-/postemergence test; assay type: in vivo, Abutilon theophrasti; settings: Postemergence; for Plant response rating, Velvetleaf: scale 0 to 100, 0 no effect, 100 complete control
Outline: as §1

velvetleaf [4] = assay: Test A pre-/postemergence greenhouse test; assay type: in vivo, Abutilon theophrasti; settings: for Velvetleaf plant response rating: 0 to 100 scale
Outline: as §2

[5] = 31 g ai/ha, Preemergence, scale 0 to 100
[6] = 62 g ai/ha, preemergence, scale 0 (no effect) to 100 (complete control)
[7] = preemergence, 125 g ai/ha, scale 0 (no effect) to 100 (complete control)
[8] = Postemergence, 125 g ai/ha, 0 is no effect, 100 is complete control
[9] = Postemergence, 500 g ai/ha, 0 is no effect, 100 is complete control
[10] = Preemergence, 125 g ai/ha, 0 no effect, 100 complete control
[11] = Preemergence, 500 g ai/ha, 0 to 100 scale where 0 is no effect and 100 is complete control
[12] = 31 g ai/ha, scale 0 to 100 (0 no effect, 100 complete control)
[13] = 62 g ai/ha, scale 0 to 100, 0 no effect, 100 complete control, 13 to 15 days
[14] = 125 g ai/ha, scale 0 to 100, 0 no effect, 100 complete control, 13 to 15 days
[15] = 250 g ai/ha, scale 0 to 100 (0 no effect, 100 complete control)

Compound: CC(c1c(C(F)(F)F)nn(C)c1OC(F)F)S(=O)(=O)c1cccc[n+]1[O-] (stereo not drawn) [Compound 5]
- Johnsongrass plant response rating (johnsongrass; [5]): 100
- Johnsongrass plant response rating (johnsongrass; [6]): 100
- Plant response rating (0 to 100), Johnsongrass (johnsongrass; Postemergence, 31 g ai/ha): 0
- Plant response rating, Johnsongrass (johnsongrass; Postemergence, 62 g ai/ha): 0
- Plant response rating, Johnsongrass (johnsongrass; Postemergence, 125 g ai/ha): 0
- Plant response rating, Johnsongrass (johnsongrass; Postemergence, 250 g ai/ha): 10
- Plant response rating (0 to 100), Johnsongrass (johnsongrass; Preemergence, 250 g ai/ha): 100
- Johnsongrass plant response rating (johnsongrass; [7]): 100
- Surinam Grass plant response rating (Surinam grass; 62 g ai/ha): 70
- Plant response rating (0 to 100), Surinam Grass (Surinam grass; Postemergence, 31 g ai/ha): 30
- Plant response rating (0 to 100), Surinam Grass (Surinam grass; Postemergence, 62 g ai/ha): 55
- Plant response rating, Surinam Grass (Surinam grass; Postemergence, 125 g ai/ha): 60
- Plant response rating, Surinam Grass (Surinam grass; Postemergence, 250 g ai/ha): 100
- Plant response rating (0 to 100), Surinam Grass (Surinam grass; Preemergence, 250 g ai/ha): 95
- Surinam Grass plant response rating (Surinam grass; 125 g ai/ha): 70
- Pigweed plant response rating (redroot pigweed; [8]): 60
- Pigweed plant response rating (redroot pigweed; [9]): 80
- Pigweed plant response rating (redroot pigweed; [10]): 100
- Plant response rating, Pigweed (redroot pigweed; [11]): 100
- Lambsquarters plant response rating (lambsquarters; [5]): 100
- Lambsquarters plant response rating (lambsquarters; [6]): 100
- Plant response rating (0 to 100), Lambsquarters (lambsquarters; Postemergence, 31 g ai/ha): 0
- Plant response rating, Lambsquarters (lambsquarters; Postemergence, 62 g ai/ha): 0
- Plant response rating, Lambsquarters (lambsquarters; Postemergence, 125 g ai/ha): 0
- Plant response rating, Lambsquarters (lambsquarters; Postemergence, 250 g ai/ha): 0
- Plant response rating (0 to 100), Lambsquarters (lambsquarters; Preemergence, 250 g ai/ha): 100
- Lambsquarters plant response rating (lambsquarters; [7]): 100
- Oat, Wild plant response rating (wild oat; [5]): 20
- Oat, Wild plant response rating (wild oat; [6]): 60
- Plant response rating (0 to 100), Oat, Wild (wild oat; Postemergence, 31 g ai/ha): 0
- Plant response rating, Oat, Wild (wild oat; Postemergence, 62 g ai/ha): 0
- Plant response rating, Oat, Wild (wild oat; Postemergence, 125 g ai/ha): 0
- Plant response rating, Oat, Wild (wild oat; Postemergence, 250 g ai/ha): 30
- Plant response rating (0 to 100), Oat, Wild (wild oat; Preemergence, 250 g ai/ha): 75
- Oat, Wild plant response rating (wild oat; [7]): 70
- Plant response rating, Rice (rice; [12]): 40
- Plant response rating, Rice (rice; [13]): 80
- Plant response rating, Rice (rice; [14]): 85
- Plant response rating, Rice (rice; [15]): 85
- Bermudagrass plant response rating (bermudagrass; [5]): 100
- Bermudagrass plant response rating (bermudagrass; [6]): 100
- Plant response rating (0 to 100), Bermudagrass (bermudagrass; Postemergence, 31 g ai/ha): 5
- Plant response rating, Bermudagrass (bermudagrass; Postemergence, 62 g ai/ha): 40
- Plant response rating, Bermudagrass (bermudagrass; Postemergence, 125 g ai/ha): 60
- Plant response rating, Bermudagrass (bermudagrass; Postemergence, 250 g ai/ha): 60
- Plant response rating (0 to 100), Bermudagrass (bermudagrass; Preemergence, 250 g ai/ha): 100
- Bermudagrass plant response rating (bermudagrass; [7]): 100
- Nightshade plant response rating (eastern black nightshade; [5]): 100
- Nightshade plant response rating (eastern black nightshade; [6]): 100
- Plant response rating (0 to 100), Nightshade (eastern black nightshade; Preemergence, 250 g ai/ha): 100
- Nightshade plant response rating (eastern black nightshade; [7]): 100
- Plant response rating, Barnyardgrass (barnyardgrass; [12]): 70
- Plant response rating, Barnyardgrass (barnyardgrass; [13]): 80
- Plant response rating, Barnyardgrass (barnyardgrass; [14]): 85
- Plant response rating, Barnyardgrass (barnyardgrass; [15]): 85
- Corn plant response rating (corn; [8]): 30
- Corn plant response rating (corn; [9]): 70
- Corn plant response rating (corn; [10]): 20
- Plant response rating, Corn (corn; [11]): 80
- Wheat plant response rating (wheat; [8]): 60
- Wheat plant response rating (wheat; [9]): 70
- Wheat plant response rating (wheat; [10]): 70
- Plant response rating, Wheat (wheat; [11]): 90
- Foxtail, Giant plant response rating (giant foxtail [1]; [8]): 90
- Foxtail, Giant plant response rating (giant foxtail [1]; [9]): 90
- Foxtail, Giant plant response rating (giant foxtail [1]; [10]): 90
- Plant response rating, Foxtail, Giant (giant foxtail [1]; [11]): 100
- Ragweed plant response rating (common ragweed; [5]): 85
- Ragweed plant response rating (common ragweed; [6]): 85
- Plant response rating (0 to 100), Ragweed (common ragweed; Postemergence, 31 g ai/ha): 0
- Plant response rating (0 to 100), Ragweed (common ragweed; Postemergence, 62 g ai/ha): 5
- Plant response rating, Ragweed (common ragweed; Postemergence, 125 g ai/ha): 5
- Plant response rating, Ragweed (common ragweed; Postemergence, 250 g ai/ha): 55
- Plant response rating (0 to 100), Ragweed (common ragweed; Preemergence, 250 g ai/ha): 100
- Ragweed plant response rating (common ragweed; [7]): 100
- Foxtail, Giant plant response rating (giant foxtail [2]; [5]): 95
- Foxtail, Giant plant response rating (giant foxtail [2]; [6]): 95
- Plant response rating (0 to 100), Foxtail, Giant (giant foxtail [2]; Postemergence, 31 g ai/ha): 0
- Plant response rating, Foxtail, Giant (giant foxtail [2]; Postemergence, 62 g ai/ha): 5
- Plant response rating, Foxtail, Giant (giant foxtail [2]; Postemergence, 125 g ai/ha): 40
- Plant response rating, Foxtail, Giant (giant foxtail [2]; Postemergence, 250 g ai/ha): 70
- Plant response rating (0 to 100), Foxtail, Giant (giant foxtail [2]; Preemergence, 250 g ai/ha): 100
- Foxtail, Giant plant response rating (giant foxtail [2]; [7]): 98
- Goosegrass plant response rating (Goosegrass; [5]): 100
- Goosegrass plant response rating (Goosegrass; [6]): 100
- Plant response rating (0 to 100), Goosegrass (Goosegrass; Postemergence, 31 g ai/ha): 0
- Plant response rating, Goosegrass (Goosegrass; Postemergence, 62 g ai/ha): 55
- Plant response rating, Goosegrass (Goosegrass; Postemergence, 125 g ai/ha): 60
- Plant response rating, Goosegrass (Goosegrass; Postemergence, 250 g ai/ha): 70
- Plant response rating (0 to 100), Goosegrass (Goosegrass; Preemergence, 250 g ai/ha): 100
- Goosegrass plant response rating (Goosegrass; [7]): 100
- Plant response rating (0 to 100), Velvetleaf (velvetleaf [3]; 31 g ai/ha): 0
- Plant response rating (0 to 100), Velvetleaf (velvetleaf [3]; 62 g ai/ha): 0
- Plant response rating, Velvetleaf (velvetleaf [3]; 125 g ai/ha): 5
- Plant response rating, Velvetleaf (velvetleaf [3]; 250 g ai/ha): 50
- Velvetleaf plant response rating (velvetleaf [4]; [8]): 60
- Velvetleaf plant response rating (velvetleaf [4]; [9]): 80
- Velvetleaf plant response rating (velvetleaf [4]; [10]): 90
- Plant response rating, Velvetleaf (velvetleaf [4]; [11]): 90
